In US8257755B2, “Metabolic syndrome-improving agent and medicine, supplement, functional food and food additive containing the same” (ARKRAY, Inc., priority 2005, dated 2012):

Experiments:
[1] = tested on: HepG2 cells (human hepatic cells); experiment: Counting of the number of living cells (CellTiter 96 Aqueous One) in HepG2; type: cell-based; conditions: 30 hours, measurement group/control group, DMSO control = 100
Method: HepG2 was cultured to 80% to 90% confluence in a 100 mm/Collagen-Coated Dish (trade name, manufactured by Iwaki Glass Works, Co.). The medium was removed from the above-noted dish with a pipette and then HepG2 was washed with 2 mL of 1×PBS. Then, 2 mL of trypsin-EDTA was added, the above-noted dish was rotated slowly so that the trypsin-EDTA spread over the entire cells, this trypsin-EDTA was removed with a pipette, and the dish was allowed to stand still for 15 minutes in a CO2 incubator (37° C., 5%). To this dish, 12 mL of a growth medium was added, followed by mixing by pipetting, and 1 mL of this mixture solution was dispensed in each well of Collagen-Coated Microplates 12Well/Flat Bottom (trade name, manufactured by Iwaki Glass Works, Co.). After the cells were checked using a microscope, the wells were cultured in a CO2 incubator (37° C., 5%) for one to two days. After checking that 80% to 90% confluence was achieved using the microscope, a medium replacement was carried out by removing the medium and adding 800 μL of a medium containing bergamottin. […] Using this collected medium, the number of living cells were counted, and the Western blotting and the ELISA measurement were carried out similarly to the above. From the result of the ELISA, the ratio of the VLDL secretion amount between the measurement group and the non-treated control group (measurement group/control group) was calculated for each sample.
The measurement was made using CellTiter 96 Aqueous One Solution Cell Proliferation Assay (trade name, manufactured by Promega Corporation). […] 100 μL of this mixture solution was dispensed to each of three wells of ELISA PLATE 96well (trade name, manufactured by Iwaki Glass Works, Co.), and the absorbance at 490 nm was measured. The measurement was made using wallac ARVOsx (trade name, PerkinElmer Life Sciences, PerkinElmer, Inc.), and the mode of measurement was Absorbance (490 nm, 1.0 S). The ratio of the number of living cells between the measurement group and the non-treated control group (measurement group/control group) was calculated for each sample.

3T3-L1 cells = experiment: mRNA expression of aP2 and adiponectin in differentiated 3T3-L1 adipocytes (Light Cycler); type: cell-based, mouse; conditions: 7 days after differentiation induction, non-treatment control = 100, average ± standard error
Method: Next, culture preadipocytes 3T3-L1 were thawed, inoculated in a 100 mm dish and cultured until 3T3-L1 cells reached about 80% confluence. A single dish of 3T3-L1 that had reached about 80% confluence was subcultured to a single 6-well plate and further cultured until the 3T3-L1 cells reached confluence in the 6-well plate, and then the medium was replaced with the differentiation induction medium, followed by differentiation induction. 48 hours later, the medium was replaced with the differentiation promotion medium, and thereafter, the medium was replaced with the differentiation promotion medium every two days. 7 days after the initiation of the differentiation induction, mRNA was extracted using Sepasol-RNA I Super (trade name; manufactured by Nacalai Tesque, Inc.), and the mRNA expression amounts of 36B4, aP2 and adiponectin, which were indicators of an early period of adipocyte differentiation, were measured using Light Cycler (TM). Also, the medium 7 days after the differentiation induction was taken in an amount of 1 mL from each well, and the amount of adiponectin in the medium supernatant was measured using a mouse/rat adiponectin ELISA kit (manufactured by Otsuka Pharmaceutical Co., Ltd.).
The medium was removed from the above-described 6-well plate, 1 mL of Sepasol(R)-RNA I Super (manufactured by Nacalai Tesque, Inc.) was added to each well, and pipetting was repeated several times so as to disperse the cells. This solution was transferred to a 1.5 mL tube and allowed to stand for 5 minutes at room temperature, and then 200 μL of chloroform was added, stirred well with a vortex stirrer and allowed to stand for 3 minutes at room temperature. The solution was cooled to 4° C. and centrifuged at 12000×g for 15 minutes. While taking great care not to disturb an interface between a phenol layer (a lower layer, yellow) and a water layer (an upper layer, colorless), the water layer alone was transferred to another tube (with a capacity of 1.5 mL). At this time, care was taken not to take proteins floating between these layers. 500 μL of isopropanol was added to the tube and mixed and allowed to stand for 10 minutes at room temperature. The solution was cooled to 4° C. and centrifuged at 12000×g for 10 minutes, followed by removing about 1 mL of the supernatant. To this precipitate, 1 mL of 75% ethanol was added and stirred to suspend the precipitate sufficiently, and then cooled to 4° C. and centrifuged at 12000×g for 10 minutes, followed by removing the supernatant. The resultant precipitate (total RNA) was dried and then dissolved in 20 μL of nuclease free water, thus measuring the concentration of mRNA using NanoDrop (manufactured by SCRUM Inc.).
The extracted and measured mRNA solution was adjusted to have an mRNA concentration of 1 μg/μL. […]

- Number of living cells (%) ([1]; 10 μM): 99.6%
- Number of living cells (%) ([1]; 20 μM): 97.2%
- Number of living cells (%) ([1]; 50 μM): 99.8%
SMILES: CC(C)=CCC/C(C)=C/COc1c2ccoc2cc2oc(=O)ccc12 [Bergamottin, bergamottin]
- Adiponectin mRNA expression amount (ratio to 36B4) (3T3-L1 cells; 1 μM): 189.5 ± 9.7
- aP2 mRNA expression amount (ratio to 36B4) (3T3-L1 cells; 1 μM): 157.5 ± 7.3
- Adiponectin mRNA expression amount (ratio to 36B4) (3T3-L1 cells; 5 μM): 227.2 ± 16.0
- aP2 mRNA expression amount (ratio to 36B4) (3T3-L1 cells; 5 μM): 194.6 ± 9.0
